Consider 21 molecules from PubChem BioAssay AID330 (DTP/NCI, 2004).

Toxic doses and inconclusive results are not listed.

The assay relates to P388 leukemia ip, CD2F1 mice, survival T/C. Kind of assay: NCI In Vivo Anticancer Drug Screen. Data for tumor model P388 Leukemia (intraperitoneal) in CD2F1 (CDF1) mice. To be noted: endpoint: median survival time, higher = longer survival. The method in brief: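 Mice carrying the transplanted tumor received test compound or vehicle. Survival was recorded in each group, and the value is the treated-group measurement divided by that of the vehicle-treated control group.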

The mark [1] stands for this setting: dose: 12.5 mg/kg/injection, schedule: Q01DX009 (ip), vehicle: saline.
Where [2] appears, read: dose: 50.0 mg/kg/injection, schedule: Q01DX009 (ip), vehicle: saline.
The mark [3] stands for this setting: dose: 100.0 mg/kg/injection, schedule: Q01DX009 (ip), vehicle: saline.
The mark [4] stands for this setting: dose: 200.0 mg/kg/injection, schedule: Q01DX009 (ip), vehicle: saline.
Where [5] appears, read: dose: 50.0 mg/kg/injection, schedule: Q01DX005 (ip), vehicle: saline with Tween-80.
Where [6] appears, read: dose: 100.0 mg/kg/injection, schedule: Q01DX005 (ip), vehicle: saline with Tween-80.
The mark [7] stands for this setting: dose: 200.0 mg/kg/injection, schedule: Q01DX005 (ip), vehicle: saline with Tween-80.
[8] abbreviates: dose: 50.0 mg/kg/injection, schedule: Q01DX005 (ip), vehicle: Klucel (hydroxypropylcellulose) (HPC).
The mark [9] stands for this setting: dose: 100.0 mg/kg/injection, schedule: Q01DX005 (ip), vehicle: Klucel (hydroxypropylcellulose) (HPC).
Where [10] appears, read: dose: 200.0 mg/kg/injection, schedule: Q01DX005 (ip), vehicle: Klucel (hydroxypropylcellulose) (HPC).
[11] abbreviates: dose: 25.0 mg/kg/injection, schedule: Q01DX009 (ip), vehicle: Klucel (hydroxypropylcellulose) (HPC).
The mark [12] stands for this setting: dose: 50.0 mg/kg/injection, schedule: Q01DX009 (ip), vehicle: Klucel (hydroxypropylcellulose) (HPC).
The mark [13] stands for this setting: dose: 100.0 mg/kg/injection, schedule: Q01DX009 (ip), vehicle: Klucel (hydroxypropylcellulose) (HPC).

On to `CCOC1CC(=O)C2(C)C3CCC4(C)C(C(C)C5CC(C)=C(C)C(=O)O5)CCC4C3CC3OC32C1O` (stereo unspecified), for which the T/C reads like this: (dose: 9.12 mg/kg/injection, schedule: Q01DX009 (ip), vehicle: saline + alcohol) 101 % of control; (dose: 18.25 mg/kg/injection, schedule: Q01DX009 (ip), vehicle: saline + alcohol) 96 % of control; (dose: 36.5 mg/kg/injection, schedule: Q01DX009 (ip), vehicle: saline + alcohol) 100 % of control.
For the molecule `CC1=C(C)C(=O)C2=C(OCCO2)C1=O`, the T/C was 100 % of control (dose: 15.0 mg/kg/injection, schedule: Q01DX005 (ip), vehicle: Klucel (hydroxypropylcellulose) (HPC)); 106 % of control (dose: 30.0 mg/kg/injection, schedule: Q01DX005 (ip), vehicle: Klucel (hydroxypropylcellulose) (HPC)); 104 % of control (dose: 60.0 mg/kg/injection, schedule: Q01DX005 (ip), vehicle: Klucel (hydroxypropylcellulose) (HPC)).
Turning to `COc1ccc(CC(=O)c2ccc(OC)cc2O)cc1`, the T/C by setting is: (dose: 100.0 mg/kg/injection, schedule: Q01DX001 (ip), vehicle: saline with Tween-80) 103 % of control; (dose: 200.0 mg/kg/injection, schedule: Q01DX001 (ip), vehicle: saline with Tween-80) 104 % of control; (dose: 400.0 mg/kg/injection, schedule: Q01DX001 (ip), vehicle: saline with Tween-80) 101 % of control.
Take `CC1(C)CC(OC(=S)S)CC(C)(C)N1O`: the T/C by setting is: (dose: 100.0 mg/kg/injection, schedule: Q04DX002 (ip), vehicle: saline) 100 % of control; (dose: 200.0 mg/kg/injection, schedule: Q04DX002 (ip), vehicle: saline) 98 % of control; (dose: 400.0 mg/kg/injection, schedule: Q04DX002 (ip), vehicle: saline) 100 % of control.
Consider `CCCCCCCC[N+]1(CC)CCCCC1`, for which the T/C is, setting by setting: (dose: 3.12 mg/kg/injection, schedule: Q01DX009 (ip), vehicle: saline) 104 % of control; (dose: 6.25 mg/kg/injection, schedule: Q01DX009 (ip), vehicle: saline) 109 % of control; under setting [1], 109 % of control.
Regarding `CNC(=S)N/N=C(/C)CSCC(=O)OC`, the T/C under setting [2] is 100 % of control, the T/C under setting [3] was 92 % of control and the T/C under setting [4] was 91 % of control.
Consider `CCOc1c(N=Nc2ccccc2Cl)c(C)nn1C(=S)SC`, for which the T/C by setting is: (dose: 60.0 mg/kg/injection, schedule: Q01DX005 (ip), vehicle: Klucel + Tween-80) 103 % of control; (dose: 120.0 mg/kg/injection, schedule: Q01DX005 (ip), vehicle: Klucel + Tween-80) 112 % of control; (dose: 240.0 mg/kg/injection, schedule: Q01DX005 (ip), vehicle: Klucel + Tween-80) 103 % of control.
Take `N#Cc1cccnc1.NCCNCCN.[Br-].[Pt+4]`: the T/C runs as follows: under setting [1], 100 % of control; (dose: 25.0 mg/kg/injection, schedule: Q01DX009 (ip), vehicle: saline) 96 % of control; under setting [2], 105 % of control; under setting [3], 103 % of control; under setting [4], 102 % of control.
On to `C/C=C\C1OC1(C)c1cc(=O)c2c(C)cc3c(c2o1)C(=O)c1c(O)c(C2CC(C)(N(C)C)C(OC(C)=O)C(C)O2)cc(C2CC(N(C)C)C(O)C(C)O2)c1C3=O` (stereo unspecified), for which the T/C is, setting by setting: (dose: 1.0 mg/kg/injection, schedule: Q01DX009 (ip), vehicle: saline + alcohol) 122 % of control; (dose: 1.0 mg/kg/injection, schedule: Q01DX010 (ip), vehicle: saline) 154 % of control; (dose: 2.0 mg/kg/injection, schedule: Q01DX010 (ip), vehicle: saline) 95 % of control.
In the case of `COc1ccc(C2C(S(=O)(=O)c3ccccc3)CON2c2ccccc2)cc1` (stereo unspecified), the T/C under setting [5] was 97 % of control, the T/C under setting [6] was 96 % of control and the T/C under setting [7] is 89 % of control.
`CC(=O)c1c(OCC(O)CN2CCN(C)CC2)cccc1OCC(O)CN1CCN(C)CC1` (stereo unspecified): the T/C (dose: 6.25 mg/kg/injection, schedule: Q01DX005 (ip), vehicle: saline) was 105 % of control; the T/C (dose: 12.5 mg/kg/injection, schedule: Q01DX005 (ip), vehicle: saline) was 101 % of control; the T/C (dose: 25.0 mg/kg/injection, schedule: Q01DX005 (ip), vehicle: saline) is 105 % of control.
Consider `c1ccc(-c2cnnc3c4ccccc4nn23)cc1`, for which the T/C reads like this: under setting [8], 97 % of control; under setting [9], 96 % of control; under setting [10], 91 % of control.
`c1cc2c3c(cccc3c1)-c1nc3ccccc3nc1-2`: the T/C reads like this: under setting [11], 101 % of control; under setting [12], 100 % of control; under setting [13], 92 % of control.
For `CCNC(=O)/C=C/c1cccc(Br)c1`, the T/C under setting [5] is 105 % of control, the T/C under setting [6] is 105 % of control and the T/C under setting [7] is 98 % of control.
For the molecule `CN(C)CCNc1ccc(NCCNCCO)c2c1C(=O)c1ccccc1C2=O`, the T/C reads like this: (dose: 10.0 mg/kg/injection, schedule: Q04DX002 (ip), vehicle: saline) 151 % of control; (dose: 20.0 mg/kg/injection, schedule: Q04DX002 (ip), vehicle: saline) 173 % of control; (dose: 40.0 mg/kg/injection, schedule: Q04DX002 (ip), vehicle: saline) 192 % of control; (dose: 80.0 mg/kg/injection, schedule: Q04DX002 (ip), vehicle: saline) 192 % of control.
As for `COc1cc2c(OC)c(c1)CCc1cc(OC)c(cc1OC)CC2`, the T/C is 97 % of control under setting [5], 97 % of control under setting [6] and 94 % of control under setting [7].
Turning to `COc1ccc(S(=O)(=O)N/N=C/c2cc(I)cc([N+](=O)[O-])c2O)cc1`, the T/C under setting [5] is 102 % of control, the T/C under setting [6] is 100 % of control and the T/C under setting [7] was 104 % of control.
Turning to `CC/C(=C/C(F)(F)C(F)(F)C(F)(F)F)[N+](=O)[O-]`, the T/C under setting [11] is 96 % of control, the T/C under setting [12] was 104 % of control and the T/C under setting [13] was 102 % of control.
As for `NC(=S)c1ccc(N=Cc2cccs2)cc1`, the T/C reads like this: (dose: 100.0 mg/kg/injection, schedule: Q01DX001 (ip), vehicle: Klucel (hydroxypropylcellulose) (HPC)) 108 % of control; (dose: 200.0 mg/kg/injection, schedule: Q01DX001 (ip), vehicle: Klucel (hydroxypropylcellulose) (HPC)) 105 % of control; (dose: 400.0 mg/kg/injection, schedule: Q01DX001 (ip), vehicle: Klucel (hydroxypropylcellulose) (HPC)) 102 % of control.
Take `O=C(NC1c2ccccc2Oc2ccccc21)OC1CCCCC1`: the T/C was 92 % of control under setting [5], 96 % of control under setting [6] and 100 % of control under setting [7].
As to `O=C(Nc1n[nH]c(NC(=O)c2ccc([N+](=O)[O-])cc2)n1)c1ccc([N+](=O)[O-])cc1`, the T/C is, setting by setting: under setting [8], 93 % of control; under setting [9], 90 % of control; under setting [10], 90 % of control.
